For eleven compounds, inhibition, Ki and EC50 results are on record in ChEMBL document CHEMBL1155826, “Refinement of histamine H3 ligands pharmacophore model leads to a new class of potent and selective naphthalene inverse agonists” (Bioorg Med Chem Lett, 2008).

Experiment [1] deals with Histamine H2 receptor (Homo sapiens) (UniProt P25021). The experiment in a line: Inhibition of histamine H2 receptor at 3 uM.
Experiment [2] addresses Histamine H4 receptor (Homo sapiens) (UniProt Q9H3N8). As to the kind of experiment: Inhibition of histamine H4 receptor at 3 uM.
The target in experiment [3] is Histamine H1 receptor (Homo sapiens) (UniProt P35367). As to the kind of experiment: Inhibition of histamine H1 receptor at 3 uM.
The target in experiment [4] is T1, Histamine H3 receptor (Homo sapiens, UniProt Q9Y5N1). The experiment in a line: Displacement of [3H]RAMH from human histamine H3 receptor expressed in CHO cells. The experiment is classed as cell-based. (In a radioligand displacement assay an active substance lowers the binding of a labelled ligand.)
For experiment [5], the target named is T1, Histamine H3 receptor. The experiment in a line: Inverse agonist activity at human histamine H3 receptor expressed in CHO cells by GTPgammaS assay. Type of experiment: functional, cell-based.
Experiment [6] has as its target T1, Histamine H3 receptor. The experiment in a line: Displacement of [3H]RAMH from human histamine H3 receptor expressed in CHO cells at 3 uM. Type of experiment: cell-based.

Structures are written as SMILES. Some results are limits rather than exact numbers.

T1 sequence (Q9Y5N1 whole entry): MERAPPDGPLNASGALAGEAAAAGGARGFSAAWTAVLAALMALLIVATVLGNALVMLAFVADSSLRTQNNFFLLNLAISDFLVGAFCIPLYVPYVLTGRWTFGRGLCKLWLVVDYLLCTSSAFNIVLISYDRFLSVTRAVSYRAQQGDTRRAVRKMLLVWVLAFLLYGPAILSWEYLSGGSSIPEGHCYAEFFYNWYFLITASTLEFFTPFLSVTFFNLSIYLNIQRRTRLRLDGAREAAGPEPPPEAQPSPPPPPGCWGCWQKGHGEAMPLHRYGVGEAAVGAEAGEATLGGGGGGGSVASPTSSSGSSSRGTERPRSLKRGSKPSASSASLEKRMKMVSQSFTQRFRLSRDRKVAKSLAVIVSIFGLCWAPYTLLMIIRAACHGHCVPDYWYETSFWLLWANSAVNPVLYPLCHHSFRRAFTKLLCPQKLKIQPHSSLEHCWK
Sequence of Histamine H4 receptor (Homo sapiens) (Q9H3N8 whole entry): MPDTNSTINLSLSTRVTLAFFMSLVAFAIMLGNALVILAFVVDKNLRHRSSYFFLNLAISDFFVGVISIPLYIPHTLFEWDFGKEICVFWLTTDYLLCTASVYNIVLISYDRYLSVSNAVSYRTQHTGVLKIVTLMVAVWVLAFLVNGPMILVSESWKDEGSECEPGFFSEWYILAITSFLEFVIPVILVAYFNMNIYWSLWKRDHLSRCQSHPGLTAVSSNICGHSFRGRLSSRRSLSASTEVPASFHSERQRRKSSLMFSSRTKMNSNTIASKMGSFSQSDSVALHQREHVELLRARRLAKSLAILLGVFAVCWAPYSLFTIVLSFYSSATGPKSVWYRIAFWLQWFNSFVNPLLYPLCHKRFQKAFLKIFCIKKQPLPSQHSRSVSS
Sequence of Histamine H1 receptor (Homo sapiens) (P35367 whole entry): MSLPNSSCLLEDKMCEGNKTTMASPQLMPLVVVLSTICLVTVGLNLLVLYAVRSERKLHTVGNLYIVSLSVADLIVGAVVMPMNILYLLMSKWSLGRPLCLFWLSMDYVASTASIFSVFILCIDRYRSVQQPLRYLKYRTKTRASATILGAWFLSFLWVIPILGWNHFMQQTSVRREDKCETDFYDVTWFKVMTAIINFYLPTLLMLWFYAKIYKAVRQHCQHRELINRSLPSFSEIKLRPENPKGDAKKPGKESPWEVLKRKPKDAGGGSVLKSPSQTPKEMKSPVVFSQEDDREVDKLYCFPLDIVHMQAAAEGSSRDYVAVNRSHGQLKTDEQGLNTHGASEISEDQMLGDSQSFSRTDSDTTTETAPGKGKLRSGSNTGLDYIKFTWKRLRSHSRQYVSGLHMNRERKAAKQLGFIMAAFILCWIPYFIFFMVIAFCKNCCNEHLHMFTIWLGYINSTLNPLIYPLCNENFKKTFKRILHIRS
Sequence of Histamine H2 receptor (Homo sapiens) (P25021 whole entry): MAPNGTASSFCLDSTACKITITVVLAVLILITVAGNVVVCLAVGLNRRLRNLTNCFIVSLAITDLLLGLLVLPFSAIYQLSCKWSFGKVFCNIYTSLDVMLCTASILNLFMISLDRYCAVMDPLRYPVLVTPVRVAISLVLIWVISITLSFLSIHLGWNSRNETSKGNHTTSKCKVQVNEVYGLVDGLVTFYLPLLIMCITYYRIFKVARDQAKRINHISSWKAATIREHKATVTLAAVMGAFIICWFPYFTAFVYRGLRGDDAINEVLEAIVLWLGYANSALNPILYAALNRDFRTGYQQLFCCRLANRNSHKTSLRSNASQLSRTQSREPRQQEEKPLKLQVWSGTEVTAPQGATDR

Usually inhibition stands for the relative decrease from the control value, in per cent. One may read the Ki as a dissociation constant, usually derived from enzyme kinetics or from competition with a known ligand. A high value points to a looser hold on the target. As usually defined, the EC50 is the midpoint of the concentration-response curve. Turning to `CC(C)N1CCC(Oc2ccc3cc(C(=O)NC4CCCCC4)ccc3c2)CC1`, the inhibition in experiment [1], in experiment [2] and in experiment [3] was < 25% throughout. Further, in experiment [4], the Ki was 87 nM. The same compound gave an EC50 in experiment [5] of 21 nM.

Consider `CC(C)N1CCC(Nc2ccc3cc(C(=O)N4CCOCC4)ccc3c2)CC1`, for which, in experiment [6], the inhibition is 61%. `c1ccc2c(Nc3ccc(OCCCN4CCCCC4)cc3)ccnc2c1` yielded an inhibition constant (Ki) in experiment [4] of 0.5 nM. For the compound `CC(C)N1CCC(Oc2ccc3c(C(=O)N4CCCC4)cccc3c2)CC1`, the inhibition in experiment [6] was determined as 53%. `CC(C)N1CCC(Nc2ccc3cc(C(=O)N4CCCC4)ccc3c2)CC1`: the inhibition in experiment [6] turned out to be 45%.

Take `C[C@H]1CC[C@H](C)N1CCCOc1ccc(-c2ccc(C(=O)N3CCOCC3)cc2)cc1` (single isomer, unassigned) [A-349,821]: the inhibitory constant (Ki) in experiment [4] stood at 12 nM. Still for that read-out and setting: for `O=C(c1ccc2cc(OCCCN3CCCCC3)ccc2c1)N1CCCC1` the value was 4 nM. In experiment [6], `CC(C)N1CCC(Nc2ccc3cc(C(=O)NC4CCCCC4)ccc3c2)CC1` displayed an inhibition of 57%. In turn, `CC(C)N1CCC(Oc2ccc3c(C(=O)NC4CCCCC4)cccc3c2)CC1` showed an inhibition in experiment [6] of 52%. Take `O=C(c1cccc2cc(OCCCN3CCCCC3)ccc12)N1CCCC1`: in experiment [6], the inhibition worked out at 58%. Turning to `CC(C)N1CCC(Oc2ccc3cc(C(=O)N4CCCC4)ccc3c2)CC1`, the Ki in experiment [4] turned out to be 57 nM.
